Reference: ChEMBL document CHEMBL1138574, “Regioselective synthesis and stereochemical structure of anti-tumor active dispiro[3H-indole-3,2'-pyrrolidine-3',3''-piperidine]-2(1H),4''-diones” (2009)

Each compound was assayed on A498 (assay: Antitumor activity against human A498 cells assessed as cell growth at 10 uM after 48 hrs by sulforhodamine B assay). Conditions: A498, 48 h, read-out: Activity.
Format: functional

Question: How did the growth at 10 µM turn out when `CN1C/C(=C\c2ccc(-c3cccs3)cc2)C(=O)[C@]2(C1)[C@@H](c1ccc(-c3cccs3)cc1)CN(C)[C@@]21C(=O)N(C)c2ccccc21` was run?
Answer: 46.5%

These compounds were tested on RXF 393 (assay: Antitumor activity against human RXF393 cells assessed as cell growth at 10 uM after 48 hrs by sulforhodamine B assay). Conditions: RXF 393, 48 h, read-out: Activity.
Format: functional

Question: `CN1C/C(=C\c2ccc(-c3cccs3)cc2)C(=O)[C@]2(C1)[C@@H](c1ccc(-c3cccs3)cc1)CN(C)[C@@]21C(=O)N(C)c2ccccc21` was tested. Which growth at 10 µM did it give?
Answer: 55.6%

What follows are compounds tested on SN12C (assay: Antitumor activity against human SN12C cells assessed as cell growth at 10 uM after 48 hrs by sulforhodamine B assay). Conditions: read-out: Activity.
Format: functional

Question: With `CN1C/C(=C\c2ccc(-c3cccs3)cc2)C(=O)[C@]2(C1)[C@@H](c1ccc(-c3cccs3)cc1)CN(C)[C@@]21C(=O)N(C)c2ccccc21` as the compound, how does the growth at 10 µM read?
Answer: 64.3%

These compounds were tested on TK-10 (assay: Antitumor activity against human TK10 cells assessed as cell growth at 10 uM after 48 hrs by sulforhodamine B assay). Conditions: TK-10, 48 h, read-out: Activity.
Format: functional

Question: Which growth at 10 µM does the source give for `CN1C/C(=C\c2ccc(-c3cccs3)cc2)C(=O)[C@]2(C1)[C@@H](c1ccc(-c3cccs3)cc1)CN(C)[C@@]21C(=O)N(C)c2ccccc21` here?
Answer: 78.8%

Each compound was assayed on UO-31 (assay: Antitumor activity against human UO31 cells assessed as cell growth at 10 uM after 48 hrs by sulforhodamine B assay). Conditions: UO-31, 48 h, read-out: Activity.
Format: functional

Question: For `CN1C/C(=C\c2ccc(-c3cccs3)cc2)C(=O)[C@]2(C1)[C@@H](c1ccc(-c3cccs3)cc1)CN(C)[C@@]21C(=O)N(C)c2ccccc21`, which growth at 10 µM is on record?
Answer: 45.4%

What follows are compounds tested on LOX IMVI (assay: Antitumor activity against human LOXIMVI cells assessed as cell growth at 10 uM after 48 hrs by sulforhodamine B assay). Conditions: read-out: Activity.
Format: functional

Question: Which growth at 10 µM does the source give for `CN1C/C(=C\c2ccc(-c3cccs3)cc2)C(=O)[C@]2(C1)[C@@H](c1ccc(-c3cccs3)cc1)CN(C)[C@@]21C(=O)N(C)c2ccccc21` here?
Answer: 65%

Each compound was assayed on M14 (assay: Antitumor activity against human M14 cells assessed as cell growth at 10 uM after 48 hrs by sulforhodamine B assay). Conditions: M14, 48 h, read-out: Activity.
Format: functional

Question: `CN1C/C(=C\c2ccc(-c3cccs3)cc2)C(=O)[C@]2(C1)[C@@H](c1ccc(-c3cccs3)cc1)CN(C)[C@@]21C(=O)N(C)c2ccccc21` was tested. Which growth at 10 µM did it give?
Answer: 58.5%

These compounds were tested on SK-MEL-28 (assay: Antitumor activity against human SK-MEL-28 cells assessed as cell growth at 10 uM after 48 hrs by sulforhodamine B assay). Conditions: SK-MEL-28, 48 h, read-out: Activity.
Format: functional

Question: For `CN1C/C(=C\c2ccc(-c3cccs3)cc2)C(=O)[C@]2(C1)[C@@H](c1ccc(-c3cccs3)cc1)CN(C)[C@@]21C(=O)N(C)c2ccccc21`, which growth at 10 µM is on record?
Answer: 80%

Each compound was assayed on UACC-257 (assay: Antitumor activity against human UACC257 cells assessed as cell growth at 10 uM after 48 hrs by sulforhodamine B assay). Conditions: UACC-257, 48 h, read-out: Activity.
Format: functional

Question: With `CN1C/C(=C\c2ccc(-c3cccs3)cc2)C(=O)[C@]2(C1)[C@@H](c1ccc(-c3cccs3)cc1)CN(C)[C@@]21C(=O)N(C)c2ccccc21` as the compound, how does the growth at 10 µM read?
Answer: 64.6%

What follows are compounds tested on UACC-62 (assay: Antitumor activity against human UACC62 cells assessed as cell growth at 10 uM after 48 hrs by sulforhodamine B assay). Conditions: UACC-62, 48 h, read-out: Activity.
Format: functional

Question: How did the growth at 10 µM turn out when `CN1C/C(=C\c2ccc(-c3cccs3)cc2)C(=O)[C@]2(C1)[C@@H](c1ccc(-c3cccs3)cc1)CN(C)[C@@]21C(=O)N(C)c2ccccc21` was run?
Answer: 47.6%

What follows are compounds tested on PC-3 (assay: Antitumor activity against human PC3 cells assessed as cell growth at 10 uM after 48 hrs by sulforhodamine B assay). Conditions: PC-3, 48 h, read-out: Activity.
Format: functional

Question: For `CN1C/C(=C\c2ccc(-c3cccs3)cc2)C(=O)[C@]2(C1)[C@@H](c1ccc(-c3cccs3)cc1)CN(C)[C@@]21C(=O)N(C)c2ccccc21`, which growth at 10 µM is on record?
Answer: 17.8%

Each compound was assayed on SF-268 (assay: Antitumor activity against human SF268 cells assessed as cell growth at 10 uM after 48 hrs by sulforhodamine B assay). Conditions: SF-268, 48 h, read-out: Activity.
Format: functional

Question: How did the growth at 10 µM turn out when `CN1C/C(=C\c2ccc(-c3cccs3)cc2)C(=O)[C@]2(C1)[C@@H](c1ccc(-c3cccs3)cc1)CN(C)[C@@]21C(=O)N(C)c2ccccc21` was run?
Answer: 72.4%

Each compound was assayed on SF-539 (assay: Antitumor activity against human SF539 cells assessed as cell growth at 10 uM after 48 hrs by sulforhodamine B assay). Conditions: SF-539, 48 h, read-out: Activity.
Format: functional

Question: `CN1C/C(=C\c2ccc(-c3cccs3)cc2)C(=O)[C@]2(C1)[C@@H](c1ccc(-c3cccs3)cc1)CN(C)[C@@]21C(=O)N(C)c2ccccc21` was tested. Which growth at 10 µM did it give?
Answer: 75.4%

Each compound was assayed on SNB-19 (assay: Antitumor activity against human SNB19 cells assessed as cell growth at 10 uM after 48 hrs by sulforhodamine B assay). Conditions: SNB-19, 48 h, read-out: Activity.
Format: functional

Question: Which growth at 10 µM does the source give for `CN1C/C(=C\c2ccc(-c3cccs3)cc2)C(=O)[C@]2(C1)[C@@H](c1ccc(-c3cccs3)cc1)CN(C)[C@@]21C(=O)N(C)c2ccccc21` here?
Answer: 65.3%

These compounds were tested on SNB-75 (assay: Antitumor activity against human SNB75 cells assessed as cell growth at 10 uM after 48 hrs by sulforhodamine B assay). Conditions: SNB-75, 48 h, read-out: Activity.
Format: functional

Question: `CN1C/C(=C\c2ccc(-c3cccs3)cc2)C(=O)[C@]2(C1)[C@@H](c1ccc(-c3cccs3)cc1)CN(C)[C@@]21C(=O)N(C)c2ccccc21` was tested. Which growth at 10 µM did it give?
Answer: 64.5%

Each compound was assayed on U-251 (assay: Antitumor activity against human U251 cells assessed as cell growth at 10 uM after 48 hrs by sulforhodamine B assay). Conditions: U-251, 48 h, read-out: Activity.
Format: functional

Question: How did the growth at 10 µM turn out when `CN1C/C(=C\c2ccc(-c3cccs3)cc2)C(=O)[C@]2(C1)[C@@H](c1ccc(-c3cccs3)cc1)CN(C)[C@@]21C(=O)N(C)c2ccccc21` was run?
Answer: 62.8%

Each compound was assayed on Rattus norvegicus (assay: Antiinflammatory activity in Wister albino rat assessed as inhibition of carrageenan-induced paw oedema at 50 mg/kg, ip administered 1 hr before carrageenan challenge measured after 4 hrs of induction of inflammation relative to control). Conditions: route intraperitoneal.
Format: functional

Question: Which inhibition in vivo at 50 mg/kg does the source give for `CN1C/C(=C\c2ccc(-c3cccs3)cc2)C(=O)[C@]2(C1)[C@@H](c1ccc(-c3cccs3)cc1)CN(C)[C@@]21C(=O)N(C)c2ccccc21` here?
Answer: 69.8%

The compounds below were run on Rattus norvegicus (assay: Antiinflammatory activity in Wister albino rat assessed as inhibition of carrageenan-induced paw oedema at 50 mg/kg, ip administered 1 hr before carrageenan challenge measured after 4 hrs of induction of inflammation relative to indomethacin). Conditions: route intraperitoneal.
Format: functional

Question: With `CN1C/C(=C\c2ccc(-c3cccs3)cc2)C(=O)[C@]2(C1)[C@@H](c1ccc(-c3cccs3)cc1)CN(C)[C@@]21C(=O)N(C)c2ccccc21` as the compound, how does the inhibition in vivo at 50 mg/kg read?
Answer: 124%
